From patent US20230026808A1, “COMPOUNDS, COMPOSITIONS, AND METHODS FOR TREATING ISCHEMIA-REPERFUSION INJURY AND/OR LUNG INJURY” (YALE UNIVERSITY, priority 2019, published 2023)

Tests used:
Format in all cases: cell-based
[1] = test system: primary cultured mouse lung endothelial cells; assay: H2O2 on primary cultured mouse lung endothelial cells (TEER, AKT phosphorylation); conditions: H2O2 at low concentrations
[2] = test system: mouse primary lung endothelial cells; assay: Bi-layer co-culture of neutrophils with endothelial cells, AKT phosphorylation; conditions: fMLP-stimulated neutrophils; SOD 60 U/ml, catalase 100 U/ml
Procedure: Mouse primary lung endothelial cells (MLEC) were first plated on the outside of the polycarbonate membrane (25,000 cells/cm^2) of the Transwell inserts (24-well type, 0.4-μm pore size, Corning, Inc. 353095), and placed upside down in the wells of the culture plate. After the cells had adhered, the Transwell inserts were inverted and reinserted into the wells of the plate. The medium was replaced 24 h after seeding with serum-free medium. SOD (60 U/ml), catalase (100 U/ml), or mock were added to the lower chambers 2 h later for 30 min. Mouse neutrophils stimulated with 5 μM fMLP were then plated on the top surface of the insert (6×10^6 cells/cm^2) for 30 min. At the end of the incubation period, neutrophils on the top side of the inserts were removed by cotton swabs, and endothelial cells on the other side of the inserts were lysed with SDS-PAGE sample buffer for Western analysis.

[3] = test system: mouse pulmonary endothelial cells; assay: TEER of mouse endothelial cells co-cultured with neutrophils; conditions: fMLP-stimulated neutrophils; catalase 100 U/ml
Procedure: ECIS 8W10E+ arrays (Applied BioPhysics) were coated with 10 μg/ml of poly-D-lysine (PDL) and washed with sterile water. Complete EBM-2 media (300 μl) was added to each well for a quick impedance background check. Subsequently, immortalized mouse pulmonary endothelial cells were seeded in a density of 60,000 cells/well in 300 μl EBM-2 medium in the coated arrays and incubated them at 37° C. in a CO2 incubator. Electrical resistance of the cell layer was recorded continuously on an ECIS system (Applied BioPhysics) until a stable resistance of approximately 600-700 ohms was achieved, after which media were removed from wells and replaced with 100 μl of assay buffer (Hanks buffer with Ca^2+ and Mg^2+0.25% BSA). Cells were allowed to re-equilibrate at 37° C. for 2 hours, before 1 μl of SOD (60 U/ml), catalase (100 U/ml), or mock were added to wells for 30 min followed by addition of 50 μl of mouse neutrophils in assay buffer containing 5 μM fMLP. Data were collected real-time throughout the experiment. All ECIS measurements were analyzed at an AC frequency of 4 kHz, which was identified as the most sensitive frequency for this cell type by frequency scans along an entire frequency range (1 kHz-64 kHz). The TEER values were normalized against those co-cultured with WT neutrophils treated with mock.

| Molecule | AKT phosphorylation [1] | trans-endothelial electrical resistance (TEER) [1] | phospho-AKT elevation by co-cultured MAP3K2/3 DKO neutrophils [2] | difference in TEER between DKO and WT neutrophil co-culture [3] |
| --- | --- | --- | --- | --- |
| OO [H2O2] | stimulates AKT phosphorylation | enhanced trans-endothelial electrical resistance (TEER) |  |  |
| catalase |  |  | abrogated | abrogated |
